Activity calls are given as the source filed them. No cut-off for these calls is given here.
Tests used:
[1] = test system: Human immunodeficiency virus type 1 reverse transcriptase (Human immunodeficiency virus 1), Q72547 [K103N]; assay: Inhibition of HIV1 reverse transcriptase K103N mutant at 400uM
[2] = test system: Human immunodeficiency virus type 1 reverse transcriptase (Human immunodeficiency virus 1), Q72547 [Y181I]; assay: Inhibition of HIV1 reverse transcriptase Y181I mutant at 400uM
MT4 = assay: Cytotoxicity against MT4 cells by MTT assay; assay type: functional; conditions: Homo sapiens
[3] = target: Human immunodeficiency virus type 1 reverse transcriptase (Human immunodeficiency virus 1) (UniProt Q72547)
[4] = target: Human immunodeficiency virus type 1 reverse transcriptase (Human immunodeficiency virus 1) (UniProt Q72547); assay: Selectivity index (CC50/EC50); assay type: functional
[5] = target: Human immunodeficiency virus type 1 reverse transcriptase (Human immunodeficiency virus 1) (UniProt Q72547); assay: Inhibition of wild type HIV1 reverse transcriptase at 400uM

SMILES	Activity [1]	Activity [2]	CC50 (MT4) [µM]	ID50 [3] [µM]	Selectivity index [4]	Activity [5]
Cc1c(O)nc(Sc2ccc(C#N)cc2)nc1Cc1c(Cl)cccc1Cl	inactive	inactive	27.6	23	–	–
O=C1Nc2ccc(Cl)cc2C(C#CC2CC2)(C(F)(F)F)O1 (single isomer, unassigned) [EFAVIRENZ]	–	–	> 0.32	–	–	–
Cc1c(O)nc(Sc2ccc(Cl)cc2)nc1Cc1c(F)cccc1F	inactive	inactive	> 66.1	22	–	–
Cc1cn([C@H]2C[C@H](N=[N+]=[N-])[C@@H](CO)O2)c(=O)[nH]c1=O [ZIDOVUDINE]	–	–	3.7	–	–	–
Cc1c(O)nc(Sc2ccc(F)cc2F)nc1Cc1c(Cl)cccc1Cl	inactive	inactive	> 60.5	10	–	–
Cc1c(O)nc(Sc2ccccc2)nc1Cc1c(F)cccc1F	inactive	inactive	> 72.7	32	> 835	–
COc1ccc(Sc2nc(O)c(C)c(Cc3c(Cl)cccc3Cl)n2)cc1	inactive	inactive	> 61.4	–	–	inactive
COc1ccc(Sc2nc(O)c(C)c(Cc3c(F)cccc3F)n2)cc1	inactive	inactive	57.5	–	–	inactive
Cc1ccnc2c1NC(=O)c1cccnc1N2C1CC1 [NEVIRAPINE]	–	–	> 7.5	–	–	–
COc1ccc(Sc2nc(O)c(C)c(Cc3c(Cl)cccc3Cl)n2)cn1	inactive	inactive	> 61.3	3.5	–	–
Cc1c(O)nc(Sc2ccc(F)cc2F)nc1Cc1c(F)cccc1F	inactive	inactive	> 65.8	30	–	–
Cc1c(O)nc(Sc2ccccc2)nc1Cc1c(Cl)cccc1Cl	inactive	inactive	> 66.3	36	–	–

— ChEMBL document CHEMBL1138894, “Synthesis and biological investigation of S-aryl-S-DABO derivatives as HIV-1 inhibitors” (Bioorg Med Chem Lett, 2006)
